Data set [1] is described as follows: Analysis of blood chemistry and cell composition. The class given is in vivo, mouse. How it is done: Complete blood counts (CBC's) and clinical chemistry panels were performed on blood obtained by cardiac puncture after euthanasia with CO2. Gross necropsies were performed, all major viscera were harvested, fixed in 10% buffered neutral formalin, routinely processed for paraffin embedding, and stained with hematoxylin and eosin (H&E). Sections were analyzed by a board-certified veterinary pathologist (DMB).
The increased sensitivity of irestatin-treated cells to hypoxic stress in vitro indicate that selective inhibition of IRE1α signaling could impact tumor growth. […] In contrast, XBP-1s was not detected in normal pancreas specimens (0/20), and infrequently observed in chronic pancreatitis (1/29) (FIG. 15). To explore the effects to irestatin 9389 in vivo, we first established animal dosing parameters using real-time bioluminescence imaging of SCID mice that had been implanted subcutaneously (s.c.) with tumor cells stably expressing the XBP-luciferase reporter. […] The XBP-luciferase signal returned to basal levels by 24 hours after treatment. […] (FIG. 16).

The subject of data set [2] is HT1080 s.c. tumor xenografts. The class given is in vivo. The settings on record: 50 mg/kg i.p. every other day, 6 doses. How it is done: Female 4-6 week-old SCID (B6.CB17) mice supplied by Stanford University Animal Facility were housed in the same facility (American Association of Laboratory Animal Care-approved) with 12 hour light cycles. Food and water were provided ad libitum. All experiments were approved by the institutional care and use committee. The potential toxicities of irestatin 9389 were examined in SCID mice injected i.p. once daily over 4 consecutive days with increasing doses of irestatin 9389 or vehicle control. […] For xenografts, 2×10^6 HT1080 fibrosarcoma cells were resuspended in 50-75 μl PBS and injected s.c. in the dorsal flanks of host mice. When the implanted tumors reached a mean volume of ˜150 mm^3, mice were randomly assigned into different treatment groups. Mice were dosed by i.p. bolus injection with either vehicle (50% DMSO, 20% cremophor EL, 30% ethanol) or irestatin 9389 (50 mg/kg). Tumors (6-8 per group) were measured every 2-4 days with calipers. Tumor volume was calculated using the formula [(W^2×L) 0.52] where W=width and L=length.
A. Irestatin 9389 impairs IREla activity in implanted tumor xenografts. […] Tumor volumes were calculated based on caliper measurements taken every 3-5 days. Data points represent the mean volume calculated from at least 7 tumors per group, with SEM shown in one direction. […]

Data set [3] deals with PANC1 pancreatic adenocarcinoma cells. As to the kind of experiment: PANC1 tumor growth in nude mice. The settings on record: 60 mg/kg bolus every 48 hours, 5 doses, 5-7 tumors per group. In kind it is in vivo, mouse. How it is done: Dose: 60 mg/kg ip bolus injection every 48 hours. 5 total doses. 5-7 tumors per group. PANC1 pancreatic adenocarcinoma cell line.
PANC1 pancreatic adenocarcinoma cells were implanted subcutaneously into nude mice. Mice were then given a bolus injection of one of the inventive irestatins (1401, 9337, 3611 or 9389) at a dose of 60 mg/kg every 48 hours for a total of 5 doses, with 5-7 tumors being treated per group.

Each structure is given as a SMILES string.

Take `Cc1csc(NC(=O)CSc2nc3c(c(C(F)(F)F)c2C#N)CCC3)n1` [Compound 9389]: in data set [1] (50 mg/kg), the “fasting blood glucose levels versus vehicle” value was “no significant difference”. This molecule also showed an HCT in data set [1] (mean, irestatin-treated mice, complete blood count) of 47%. Besides, the “Total Bilirubin” value in data set [1] (mean, irestatin-treated mice, terminal cardiac blood) is listed as 0.3 mg/dL. The antitumor effect entry in data set [2] is listed as “significant cytostatic antitumor effects”. Further, in data set [3], the tumor growth entry is on record as “significant tumor growth was observed in untreated mice, but not in mice treated with the irestatins”.
